In patent publication US8921314B2, “Conjugates of GLP-1 agonists and uses thereof” (Angiochem, Inc., priority 2008, dated 2014):
Entries after “also recorded” stand apart in the source; their conditions may differ.

Assays:
mouse brain = settings: in vivo
Description: To measure brain uptake of the exendin-4/Angiopep-2 conjugates, we used an in situ perfusion assay. […] The uptake of labeled exendin-4 and the exendin-4/Angiopep-2 conjugates was measured using the in situ brain perfusion method adapted in our laboratory for the study of drug uptake in the mouse brain (Dagenais et al., J Cereb Blood Flow Metab. 20:381-6, 2000; Cisternino et al., Pharm Res 18, 183-190, 2001). Briefly, the right common carotid artery of mice anesthetized with ketamine/xylazine (140/8 mg/kg i.p.) was exposed and ligated at the level of the bifurcation of the common carotid, rostral to the occipital artery. The common carotid was then catheterized rostrally with polyethylene tubing filled with heparin (25 U/ml) and mounted on a 26-gauge needle. The syringe containing the perfusion fluid ([^125I]-proteins or [^125I]-peptides in Krebs/bicarbonate buffer at pH 7.4, gassed with 95% O2 and 5% CO2) was placed in an infusion pump (Harvard pump PHD 2000; Harvard Apparatus) and connected to the catheter. Prior to the perfusion, the contralateral blood flow contribution was eliminated by severing the heart ventricles. The brain was perfused for 5 min at a flow rate of 1.15 ml/min. After perfusion of radiolabeled molecules, the brain was further perfused for 60 s with Krebs buffer, to wash away excess [^125I]-proteins. […]

DIO mice = test: reduction of glycemia in DIO mice after bolus injection; format: in vivo, mouse; settings: vs control
Description: We also tested the ability of the exendin-4-Angiopep-2 dimer conjugate to reduce glycemia in DIO mice. Mice were injected with a bolus containing a control, exendin-4, or the exendin-4-Angiopep-2 dimer conjugate.

ob/ob mice = test: treatment of obese (ob/ob) mice with exendin-4/Angiopep-2 conjugate; format: in vivo, mouse; settings: Q1D, higher doses (exendin-4 30 μg/kg, Exen-An2 48 μg/kg), vs control
Description: Obese mice (ob/ob mice) were administered the [Lys^39-MHA]exendin-4/Angiopep-2-Cys-NH2 conjugate (Exen-An2).
A 1.6 μg/kg dose of Exen-An2 is equivalent to a 1 μg/kg dose of exendin-4. The body weight of each mouse was measured daily. Food intake was estimated based on the mean values for each group, and glycemia was measured one hour following treatment.

Substance	brain distribution (mouse brain)	glycemia (DIO mice)	body weight gain (ob/ob mice; after 10 days, FIG. 5)	food intake (ob/ob mice; FIG. 6)
[Lys^39-MHA]exendin-4/Angiopep-2-Cys-NH2 [Exen-An2]	10 ml/100 g/2 min			
exendin-4 [reference compound]	0.2 ml/100 g/2 min	reduced glycemia	lower than the control; also recorded: reduce weight gain	reduced; also recorded: reduce food intake
